Laboratory results taken from article PMC8874615 (Viruses, 2022).
pEC50: −log10 of the molar value. Converted amounts (≈) assume the structure as drawn. Like-named read-outs stand apart in the source and are kept apart here.

Columns and labels:
[1] = Cytotoxicity assay (Cell Counting Kit-8) in UKF-NB-4 cells; conditions: human, UKF-NB-4 neuroblastoma cells
[2] = Cytotoxicity assay (Cell Counting Kit-8) in Huh-7 cells; conditions: human, Huh-7 hepatocarcinoma cells
[3] = test system: human lung carcinoma cells (A549); conditions: cited from earlier work
ZIKV, strain Paraiba_01 [4] = test: microbe, parasite or virus in culture; conditions: Zika virus, Vero
TBEV, strain Hypr [5] = test system: TBEV, strain Hypr
HSV-1, strain MacIntyre [6] = test: microbe, parasite or virus in culture; conditions: Human alphaherpesvirus 1, Vero
[7] = test system: Mardin-Darby canine kidney cells (MDCK); conditions: cited from earlier work
RABV, strain CVS-11 [8] = test: microbe, parasite or virus in culture; conditions: Lyssavirus rabies, BHK-21, 72 h
[9] = Cytotoxicity assay (Cell Counting Kit-8) in HBCA cells; conditions: human, human brain cortical astrocytes (HBCA)
RVFV, strain H13/96 [10] = test system: RVFV, strain H13/96
ZIKV strain Paraiba_01 = test: Mechanistic plaque number assay, ZIKV in Vero cells; assay type: cell-based, Zika virus; conditions: diphyllin 1 100 µM, bafilomycin A1 100 nM
[11] = Cytotoxicity assay (Cell Counting Kit-8) in Vero cells; conditions: African green monkey
[12] = Light sensitivity of the prepared sample; assay type: physicochemical; conditions: solid sample; surface coloration, detrimental to antivirus activities
[13] = Cytotoxicity assay (Cell Counting Kit-8) in PS cells; conditions: pig, porcine kidney stable (PS) cells
ZIKV, strain Paraiba_01 [14] = test system: ZIKV, strain Paraiba_01
WNV, strain Eg-101 [15] = test system: WNV, strain Eg-101
TBEV, strain Hypr [16] = test: microbe, parasite or virus in culture; conditions: Tick-borne encephalitis virus, Vero
[17] = test system: rabbit lung cells (RL-33); conditions: RL-33 cells; cited from earlier work
RABV, strain CVS-11 [18] = test system: RABV, strain CVS-11
[19] = test system: endosomal acidification in Vero cells; test: Analysis of endosomal acidification with acridine orange; assay type: cell-based, African Green Monkey; conditions: 20 min
RVFV, strain H13/96 [20] = test: microbe, parasite or virus in culture; conditions: Rift Valley fever virus, Vero
HSV-1 strain MacIntyre = test: Mechanistic plaque number assay, HSV-1 in Vero cells; assay type: cell-based, herpes simplex virus type 1; conditions: diphyllin 1 100 µM, bafilomycin A1 100 nM
[21] = test system: feline macrophage-like cells (fcwf-4); conditions: fcwf-4 cells; cited from earlier work
WNV, strain Eg-101 [22] = test: microbe, parasite or virus in culture; conditions: West Nile virus, Vero
[23] = Cytotoxicity assay (Cell Counting Kit-8) in BHK-21 cells; conditions: hamster, BHK-21 cells (baby hamster kidney)
HSV-1, strain MacIntyre [24] = test system: HSV-1, strain MacIntyre
[25] = 3 h p.i. treatment then washing, plaques counted at 120 h
[26] = compound kept for the whole 120 h p.i.
[27] = 3 h p.i. treatment then washing, plaques counted at 72 h
[28] = compound kept for the whole 72 h p.i.

Compound	CC50 at 48 h [1]	CC50 at 48 h [2]	SI (CC50/EC50) (TBEV, strain Hypr [5])	CC50 at 48 h [9]	susceptibility of ZIKV (plaque number) (ZIKV strain Paraiba_01; [25])	susceptibility of ZIKV (plaque number) (ZIKV strain Paraiba_01; [26])	CC50 at 48 h [11]	CC50 at 72 h [11]	CC50 at 144 h [11]	CC50 at 48 h [13]	pEC50 (TBEV, strain Hypr [16])	susceptibility of HSV-1 (plaque number) (HSV-1 strain MacIntyre; [27])	susceptibility of HSV-1 (plaque number) (HSV-1 strain MacIntyre; [28])	other results
COc1cc2c(O)c3c(c(-c4ccc5c(c4)OCO5)c2cc1OC)C(=O)OC3 [Diphyllin 1, 9-(3‣,4‣-methylenedioxyphenyl)-4-hydroxy-6,7-dimethoxynaphtho[2,3-c]furan-1(3H)-one]	11.1 µM	1.89 µM	>117.64	3.39 µM	susceptible	susceptible	> 100 µM	> 100 µM	18.2 µM	92.4 µM	6.07	not susceptible	highly susceptible	CC50 [3]: 24 µM; pEC50 (ZIKV, strain Paraiba_01 [4]): 6.27; pEC50 (HSV-1, strain MacIntyre [6]): 6.23; CC50 [7]: 3.48 µM; pEC50 (RABV, strain CVS-11 [8]): 5.20; SI (CC50/EC50) (RVFV, strain H13/96 [10]): >217.39; light sensitivity [12]: rather light-sensitive; SI (CC50/EC50) (ZIKV, strain Paraiba_01 [14]): >185.19; SI (CC50/EC50) (WNV, strain Eg-101 [15]): >128.20; pEC50 (TBEV, strain Hypr [16]; 48 h): 5.98; CC50 [17]: 63 µg/mL (≈ 166 µM); SI (CC50/EC50) (RABV, strain CVS-11 [18]): >15.80; drop in RABV RNA copies/µL compared with RABV-infected control cells (RABV, strain CVS-11 [18]): 10^2; red fluorescence intensity of acidic endosomes (acridine orange) ([19]; 100 µM, versus DMSO control): much reduced; pEC50 (RVFV, strain H13/96 [20]): 6.34; CC50 [21]: 5.99 µM; pEC50 (WNV, strain Eg-101 [22]): 6.11; CC50 at 72 h [23]: > 100 µM; SI (CC50/EC50) (HSV-1, strain MacIntyre [24]): >169.49; concentration at which complete HSV-1 suppression starts (HSV-1, strain MacIntyre [24]): ≥ 2.5 µM
COc1cc2c(O)c3c(c(-c4ccc5c(c4)OCO5)c2cc1OC)C(=O)OC3 [commercial product, diphyllin]	–	–	–	–	–	–	–	–	–	–	–	–	–	pEC50 (TBEV, strain Hypr [5]): 5.91
COc1cc2c(O[C@@H]3O[C@H](CO)[C@@H](O)[C@H](O)[C@H]3O)c3c(c(-c4ccc5c(c4)OCO5)c2cc1OC)C(=O)OC3 [Cleistanthin B 8, diphyllin-4-β-D-glucopyranoside, reference compound]	6.17 µM	3.96 µM	>18.08	2.08 µM	–	–	> 100 µM	> 100 µM	80.7 µM	78.9 µM	5.26	–	–	–
CO/C1=C\C(C)=C\[C@@H](C)[C@@H](O)[C@@H](C)C/C(C)=C/C=C/[C@H](OC)[C@@H]([C@@H](C)[C@@H](O)[C@H](C)[C@@]2(O)C[C@@H](O)[C@H](C)[C@@H](C(C)C)O2)OC1=O [bafilomycin A1, reference compound]	–	–	–	–	susceptible	susceptible	–	–	–	–	–	not susceptible	not susceptible	pEC50 (ZIKV, strain Paraiba_01 [4]; 48 h): 8.61; pEC50 (HSV-1, strain MacIntyre [6]; 48 h): < 7.00; viability at 48 h, 0.15 µM [11]: ~80%; red fluorescence intensity of acidic endosomes (acridine orange) ([19]; 100 nM, positive control): all the more obvious; effect on HSV-1 virus titers (HSV-1, strain MacIntyre [24]): no effect
